For the assay, the target named is GCN2 (Homo sapiens, UniProt Q9P2K8). Put plainly: GCN2 enzymatic endpoint assay: phosphorylation of GFP-eIF2α measured by TR-FRET (Lanthascreen). Format: biochemical. The gist of the method: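 Read-out is the TR-FRET ratio of acceptor signal at 520 nm to terbium donor at 495 nm, rising with antibody binding to phosphorylated GFP-eIF2α. Endpoint format: 2 μM ATP, 80 nM substrate, 90 minutes at room temperature, EDTA stop.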
(Time-resolved FRET reads energy transfer from a long-lived donor to a nearby acceptor.)

Where [1] appears, read: tested as described in Example 77, compound and/or hydrochloride, dihydrochloride or trifluoroacetic acid salt, read-out: IC 50 Activity.
Setting [2] is: GCN2 biochemical IC50, 4 nM GCN2, 2 μM ATP, 80 nM GFP-eIF2α, 90 min RT, read-out: GCN2 activity.

Read-outs that look alike come from different tables or passages of the source.

Sequence of GCN2 (Q9P2K8 whole entry): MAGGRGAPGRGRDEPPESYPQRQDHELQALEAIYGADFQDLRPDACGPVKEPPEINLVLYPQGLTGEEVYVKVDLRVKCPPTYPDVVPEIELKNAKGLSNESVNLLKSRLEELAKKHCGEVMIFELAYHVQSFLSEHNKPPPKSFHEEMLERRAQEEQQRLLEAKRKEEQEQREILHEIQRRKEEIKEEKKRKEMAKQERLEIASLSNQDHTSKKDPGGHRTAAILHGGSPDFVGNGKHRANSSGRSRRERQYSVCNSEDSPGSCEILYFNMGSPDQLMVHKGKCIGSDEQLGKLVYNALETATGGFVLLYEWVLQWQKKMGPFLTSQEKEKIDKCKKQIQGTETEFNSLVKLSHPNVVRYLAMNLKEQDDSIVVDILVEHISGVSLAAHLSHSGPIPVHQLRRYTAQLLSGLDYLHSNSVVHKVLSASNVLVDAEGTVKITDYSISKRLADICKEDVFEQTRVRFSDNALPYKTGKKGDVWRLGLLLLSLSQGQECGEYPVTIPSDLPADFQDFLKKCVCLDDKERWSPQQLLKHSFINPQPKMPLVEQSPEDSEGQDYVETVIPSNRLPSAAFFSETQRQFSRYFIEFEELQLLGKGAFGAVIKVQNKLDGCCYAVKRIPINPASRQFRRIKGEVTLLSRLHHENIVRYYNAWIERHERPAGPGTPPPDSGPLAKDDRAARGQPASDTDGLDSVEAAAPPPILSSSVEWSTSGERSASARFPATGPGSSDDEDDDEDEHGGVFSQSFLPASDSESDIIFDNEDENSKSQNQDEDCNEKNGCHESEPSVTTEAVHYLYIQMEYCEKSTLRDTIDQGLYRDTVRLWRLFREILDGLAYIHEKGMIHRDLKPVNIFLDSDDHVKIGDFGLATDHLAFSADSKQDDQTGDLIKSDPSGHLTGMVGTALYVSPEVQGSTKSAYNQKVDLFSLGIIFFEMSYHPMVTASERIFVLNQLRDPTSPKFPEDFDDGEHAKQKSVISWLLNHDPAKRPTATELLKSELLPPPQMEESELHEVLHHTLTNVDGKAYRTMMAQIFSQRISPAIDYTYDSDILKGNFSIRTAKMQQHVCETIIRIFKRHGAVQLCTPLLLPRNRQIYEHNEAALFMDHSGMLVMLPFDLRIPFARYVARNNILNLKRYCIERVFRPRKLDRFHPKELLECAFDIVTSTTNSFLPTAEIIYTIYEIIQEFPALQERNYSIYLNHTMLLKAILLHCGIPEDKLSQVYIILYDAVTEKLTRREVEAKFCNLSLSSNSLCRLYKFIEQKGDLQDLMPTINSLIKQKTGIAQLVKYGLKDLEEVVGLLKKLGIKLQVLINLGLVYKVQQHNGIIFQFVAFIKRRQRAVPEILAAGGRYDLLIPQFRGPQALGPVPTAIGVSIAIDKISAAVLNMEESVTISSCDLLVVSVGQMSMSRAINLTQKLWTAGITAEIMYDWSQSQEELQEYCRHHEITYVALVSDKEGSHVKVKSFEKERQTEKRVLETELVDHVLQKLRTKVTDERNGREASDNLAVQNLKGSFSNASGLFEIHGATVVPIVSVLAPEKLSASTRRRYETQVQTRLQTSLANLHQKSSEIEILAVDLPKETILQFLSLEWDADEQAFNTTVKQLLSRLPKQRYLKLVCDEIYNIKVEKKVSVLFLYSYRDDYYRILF

For `CNC(=O)[C@]1(C)CC[C@@H](Nc2ncc3c(Br)nn(-c4cc(CN5CCCS5(=O)=O)c5ncccc5c4)c3n2)C1` [(1R,3R)-3-[[3-bromo-1-[8-[(1,1-dioxo-1,2-thiazolidin-2-yl)methyl]-6-quinolyl]pyrazolo[3,4-d]pyrimidin-6-yl]amino]-N,1-dimethyl-cyclopentanecarboxamide], under setting [1], the IC50 lay within 25 to 200 nM.

For the compound `Fc1cc(-n2nc(Br)c3cnc(NC4COC5(CCNCC5)C4)nc32)cc2cccnc12` (stereo not shown) [N-[3-bromo-1-(8-fluoro-6-quinolyl)pyrazolo [3,4-d]pyrimidin-6-yl]-1-oxa-8-azaspiro[4.5] decan-3-amine], the IC50 under setting [1] lay in the range of 25 to 200 nM.

For the compound `O=C(NC[C@@H]1COCCN1)[C@@H]1CC[C@@H](Nc2ncc3c(Br)nn(-c4ccc5ncccc5c4)c3n2)C1` [(1R,3R)-3-((3-bromo-1-(quinolin-6-yl)-1H-pyrazolo[3,4-d]pyrimidin-6-yl)amino)-N-(((R)-morpholin-3-yl)methyl)cyclopentane-1-carboxamide], under setting [1], the IC50 fell in the range of 200 to 500 nM.

As for `CNC(=O)[C@]1(C)CC[C@@H](Nc2ncc3c(Br)nn(-c4ccc(-c5nnc(C)o5)c(F)c4)c3n2)C1` [(1R,3R)-3-[[3-bromo-1-[3-fluoro-4-(5-methyl-1,3,4-oxadiazol-2-yl)phenyl]pyrazolo[3,4-d]pyrimidin-6-yl]amino]-N,1-dimethyl-cyclopentanecarboxamide], the IC50 under setting [1] is 25 to 200 nM.

Regarding `CNC(=O)[C@]1(C)CC[C@@H](Nc2ncc3c(Br)nn(-c4cncc(C#N)c4)c3n2)C1` [(1R,3R)-3-[[3-bromo-1-(5-cyano-3-pyridyl)pyrazolo[3,4-d]pyrimidin-6-yl]amino]-N,1-dimethyl-cyclopentane-carboxamide], the IC50 under setting [1] was in the range of 25 to 200 nM.

As to `CNC(=O)[C@]1(C)CC[C@@H](Nc2ncc3c(Br)nn(-c4cc(Cl)cc([C@@H](C)N)c4)c3n2)C1`, the IC50 under setting [1] is < 25 nM.

`CNC(=O)[C@]1(C)CC[C@@H](Nc2ncc3c(Br)nn(-c4cc(CNCCC#N)c5ncccc5c4)c3n2)C1` [(1R,3R)-3-[[3-bromo-1-[8-[(2-cyanoethyl-amino)methyl]-6-quinolyl]pyrazolo[3,4-d]pyrimidin-6-yl]amino]-N,1-dimethyl-cyclopentanecarboxamide]: under setting [1], the IC50 was 25 to 200 nM.

Consider `CNC(=O)[C@]1(C)CC[C@@H](Nc2ncc3c(Br)nn(-c4ccc(-c5nnco5)cc4)c3n2)C1` [(1R,3R)-3-[[3-bromo-1-[4-(1,3,4-oxadiazol-2-yl)phenyl]pyrazolo[3,4-d]pyrimidin-6-yl]amino]-N,1-dimethyl-cyclopentane-carboxamide], for which the IC50 under setting [1] was 25 to 200 nM.

On to `CNC(=O)[C@]1(CO)CC[C@@H](Nc2ncc3c(Br)nn(-c4ccc(-c5nnc(C)s5)cc4)c3n2)C1` [(1R,3R)-3-[[3-bromo-1-[4-(5-methyl-1,3,4-thiadiazol-2-yl)phenyl]pyrazolo [3,4-d]pyrimidin-6-yl]amino]-1-(hydroxymethyl)-N-methyl-cyclo-pentanecarboxamide], for which the IC50 under setting [1] was in the range of 25 to 200 nM.

For the compound `CN[C@]1(C)CC[C@@H](Nc2ncc3c(Br)nn(-c4ccc(-c5nnc(C)s5)cc4)c3n2)C1`, the IC50 under setting [1] fell in the range of 25 to 200 nM.

`CN1CN(C(=O)[C@@]2(C)CC[C@@H](Nc3ncc4c(Br)nn(-c5cc(F)c6ncccc6c5)c4n3)C2)CC1=O` [1-[(1S,3R)-3-[[3-bromo-1-(8-fluoro-6-quinolyl)pyrazolo[3,4-d]pyrimidin-6-yl]amino]-1-methyl-cyclopentanecarbonyl]-3-methyl-imidazolidin-4-one]: the IC50 under setting [1] lay in the range of 25 to 200 nM.

For `CNC(=O)[C@]1(CC(F)(F)F)CC[C@@H](Nc2ncc3c(Br)nn(-c4cc(F)c5ncccc5c4)c3n2)C1` [(1R,3R)-3-[[3-bromo-1-(8-fluoro-6-quinolyl)pyrazolo[3,4-d]pyrimidin-6-yl]amino]-N-methyl-1-(2,2,2-trifluoroethyl)cyclopentane-carboxamide], under setting [1], the IC50 is < 25 nM.

Regarding `CNC(=O)[C@]1(C)CC[C@@H](Nc2ncc3c(Br)nn(-c4ccc5ncn(C)c(=O)c5c4)c3n2)C1` [Example 72, (1R,3R)-3-((3-bromo-1-(3-methyl-4-oxo-3,4-dihydroquinazolin-6-yl)-1H-pyrazolo[3,4-d]pyrimidin-6-yl)amino)-N,1-dimethylcyclopentane-1-carboxamide], under setting [2], the IC50 was in the range of 25 to 200 nM.

Regarding `CNC(=O)C1(C)CC[C@@H](Nc2ncc3c(Br)nn(-c4ccc(-c5nc(C)no5)cc4)c3n2)C1` (stereo partly drawn) [(3R)-3-[[3-bromo-1-[4-(3-methyl-1,2,4-oxadiazol-5-yl)phenyl]pyrazolo[3,4-d]pyrimidin-6-yl]amino]-N,1-dimethyl-cyclopentanecarboxamide], the IC50 under setting [1] lay within 25 to 200 nM.

Turning to `CNS(=O)(=O)C1CC[C@@H](Nc2ncc3c(Br)nn(-c4ccc(-c5nnc(C)s5)c(CCC#N)c4)c3n2)C1` (stereo partly drawn) [(3R)-3-[[3-bromo-1-[3-(2-cyanoethyl)-4-(5-methyl-1,3,4-thiadiazol-2-yl)phenyl]pyrazolo[3,4-d]pyrimidin-6-yl]amino]-N-methyl-cyclopentanesulfonamide], under setting [1], the IC50 was 25 to 200 nM.

With `CNC(=O)[C@]1(C)CC[C@@H](Nc2ncc3c(Br)nn(-c4ccc5nccc(P(C)(C)=O)c5c4)c3n2)C1` [(1R,3R)-3-[[3-bromo-1-(4-dimethyl-phosphoryl-6-quinolyl)pyrazolo[3,4-d]pyrimidin-6-yl]amino]-N,1-dimethyl-cyclopentanecarboxamide], the IC50 under setting [1] was in the range of 25 to 200 nM.

As for `CNC(=O)[C@]1(C)CC[C@@H](Nc2ncc3c(Br)nn(-c4ccc(-c5ncco5)c(C(C)(C)CN)c4)c3n2)C1` [(1R,3R)-3-[[1-[3-(2-amino-1,1-dimethyl-ethyl)-4-oxazol-2-yl-phenyl]-3-bromo-pyrazolo[3,4-d]pyrimidin-6-yl]amino]-N,1-dimethyl-cyclopentanecarboxamide], the IC50 under setting [1] was in the range of 25 to 200 nM.

Consider `N#CC1CN(C(=O)[C@@H]2CC[C@@H](Nc3ncc4c(Br)nn(-c5cc(F)c6ncccc6c5)c4n3)C2)C1` [1-[(1R,3R)-3-[[3-bromo-1-(8-fluoro-6-quinolyl)pyrazolo[3,4-d]pyrimidin-6-yl]amino]cyclopentanecarbonyl]azetidine-3-carbonitrile], for which, under setting [1], the IC50 is < 25 nM.

For `CNC(=O)[C@]1(C)CC[C@@H](Nc2ncc3c(Br)nn(-c4ccc(-c5nnc(C(C)O)o5)cc4)c3n2)C1` (stereo partly drawn) [(1R,3R)-3-[[3-bromo-1-[4-[5-(1-hydroxy-ethyl)-1,3,4-oxadiazol-2-yl]phenyl]pyrazolo [3,4-d]pyrimidin-6-yl]amino]-N,1-dimethyl-cyclopentanecarboxamide], the IC50 under setting [1] was 25 to 200 nM.

With `O=C(NC1CCOCC1)[C@@H]1CC[C@@H](Nc2ncc3c(Br)nn(-c4ccc5ncccc5c4)c3n2)C1` [(1R,3R)-3-((3-bromo-1-(quinolin-6-yl)-1H-pyrazolo[3,4-d]pyrimidin-6-yl)amino)-N-(tetrahydro-2H-pyran-4-yl)cyclopentane-1-carboxamide], the IC50 under setting [1] lay within 25 to 200 nM.

Regarding `COC1CCN(C(=O)[C@]2(C)CC[C@@H](Nc3ncc4c(Br)nn(-c5cc(F)c6ncccc6c5)c4n3)C2)C1` (stereo partly drawn) [[(1R,3R)-3-[[3-bromo-1-(8-fluoro-6-quinolyl)pyrazolo[3,4-d]pyrimidin-6-yl]amino]-1-methyl-cyclopentyl]-(3-methoxypyrrolidin-1-yl)methanone], the IC50 under setting [1] is 25 to 200 nM.

In the case of `CNC(=O)[C@]1(C)CC[C@@H](Nc2ncc3c(Br)nn(-c4cc(F)cc(CO)c4)c3n2)C1` [(1R,3R)-3-[[3-bromo-1-[3-fluoro-5-(hydroxymethyl)phenyl]pyrazolo[3,4-d]pyrimidin-6-yl]amino]-N,1-dimethyl-cyclopentanecarboxamide], the IC50 under setting [1] is 25 to 200 nM.

For `N#Cc1cc(-n2nc(Br)c3cnc(N[C@@H]4CC[C@@H](C(=O)N[C@@H]5CNC[C@@H]5F)C4)nc32)cc2cccnc12` [(1R,3R)-3-((3-bromo-1-(8-cyanoquinolin-6-yl)-1H-pyrazolo[3,4-d]pyrimidin-6-yl)amino)-N-((3R,4S)-4-fluoropyrrolidin-3-yl)cyclo-pentane-1-carboxamide], the IC50 under setting [1] is < 25 nM.

Regarding `CNC(=O)[C@]1(C)CC[C@@H](Nc2ncc3c(Br)nn(-c4cc(F)cc(CCO)c4)c3n2)C1` [(1R,3R)-3-[[3-bromo-1-[3-fluoro-5-(2-hydroxyethyl)phenyl]pyrazolo [3,4-d]pyrimidin-6-yl]amino]-N,1-dimethyl-cyclopentanecarboxamide], the IC50 under setting [1] is < 25 nM.

As for `CNC(=O)[C@]1(C)CC[C@@H](Nc2ncc3c(Br)nn(-c4ccc(-c5nnc(C)s5)c(CCC#N)c4)c3n2)C1` [Example 49, (1R,3R)-3-((3-bromo-1-(3-(2-cyanoethyl)-4-(5-methyl-1,3,4-thiadiazol-2-yl)phenyl)-1H-pyrazolo[3,4-d]pyrimidin-6-yl)amino)-N,1-dimethylcyclopentane-1-carboxamide], the IC50 under setting [2] was in the range of 25 to 200 nM.

For the compound `CNC(=O)[C@]1(C)CC[C@@H](Nc2ncc3c(Br)nn(-c4cccc(NC5COC5)c4)c3n2)C1` [(1R,3R)-3-[[3-bromo-1-[3-(oxetan-3-ylamino)phenyl]pyrazolo[3,4-d]pyrimidin-6-yl]amino]-N,1-dimethyl-cyclopentanecarboxamide], the IC50 under setting [1] was 25 to 200 nM.

`CN1CCN(C(=O)[C@@H]2CC[C@@H](Nc3ncc4c(Br)nn(-c5cc(C(F)F)c6ncccc6c5)c4n3)C2)CC1=O` [4-((1R,3R)-3-((3-bromo-1-(8-(difluoromethyl)quinolin-6-yl)-1H-pyrazolo[3,4-d]pyrimidin-6-yl)amino)cyclopentane-1-carbonyl)-1-methyl-piperazin-2-one]: the IC50 under setting [1] fell in the range of 25 to 200 nM.

Regarding `C[C@H](N)c1cc(Cl)cc(-n2nc(Br)c3cnc(N[C@@H]4CC[C@@](C)(C(=O)NCC(F)F)C4)nc32)c1` [(1R,3R)-3-[[1-[3-[(1S)-1-aminoethyl]-5-chloro-phenyl]-3-bromo-pyrazolo[3,4-d]pyrimidin-6-yl]amino]-N-(2,2-difluoro-ethyl)-1-methyl-cyclopentanecarboxamide], under setting [1], the IC50 fell in the range of 25 to 200 nM.

The values are drawn from patent publication US11046699B2, “Pyrazolo-pyrimidin-amino-cycloalkyl compounds and their therapeutic uses” (RAPT THERAPEUTICS, INC., priority 2018, dated 2021).
